# Results: US11826358B2, “Locally-induced adipose tissue browning by microneedle patch for obesity treatment” (NORTH CAROLINA STATE UNIVERSITY, priority 2017, dated 2023)
# Assays:
# [1] = tested on: 3T3-L1 adipocytes; assay: Browning in fully differentiated 3T3-L1 adipocytes (Q-PCR); format: cell-based
# Source text: To validate the efficiency of Rosi NPs, an in vitro adipocyte model PgKO-PPARγ1 was used in which the reconstitution of a shorter form of PPARγ (γ1) in Ppar^−/− mouse embryonic fibroblast (MEF) rescues adipocyte differentiation only in the presence of exogenous Thiazolidinedione class of ligand (e.g. Rosi). […] In addition to adipogenic potential, the browning capacity of Rosi NPs was also compared. In fully differentiated 3T3-L1 adipocytes, Rosi NPs behaved the same as nude Rosi to up-regulate brown adipocyte markers Elovl3 and Cidea as well as to repress white adipocyte genes Resistin and Adipsin (FIG. 2g). Therefore, the disclosed nanoparticalization strategy can sustain a constant release of Rosi at physiological levels of glucose without affecting its efficiency.
# RNA was extracted from tissues or cells by combining TriZol reagent and NucleoSpin RNA kit with DNase I digestion (Macherey-Nagel), following the manufacturer's instructions. 1 μg total RNA was used to synthesize cDNA by using the High-capacity cDNA Reverse Transcription kit (Applied Biosystems). Quantitative real-time PCR (Q-PCR) were performed on a Bio-Rad CFX96 Real-Time PCR platform by using the GoTaq qPCR Master Mix (Promega). Relative gene expressions were calculated by using ΔΔCt method with Cyclophilin A (cultured cells) or RPL23 (tissues) as the reference gene.
# [2] = tested on: PgKO-PPARγ1; assay: Adipogenesis in PgKO-PPARγ1 MEF adipocyte model (aP2, Perilipin Q-PCR); format: cell-based, mouse
smiles,measurement,setting,value
"CN(CCOc1ccc(CC2SC(=O)NC2=O)cc1)c1ccccn1 (racemic) [nude Rosi, (RS)-5-[4-(2-[methyl(pyridin-2-yl)amino]ethoxy)benzyl]thiazolidine-2,4-dione]",brown adipocyte markers Elovl3 and Cidea expression,[1],up-regulate
same,white adipocyte genes Resistin and Adipsin expression,[1],repress
same,adipocyte formation (induction of aP2 and Perilipin),[2],induce adipocyte formation
